One series has as its target T1, recombinant CE-2 (Homo sapiens, UniProt O00748).
T1 sequence (O00748 27-559): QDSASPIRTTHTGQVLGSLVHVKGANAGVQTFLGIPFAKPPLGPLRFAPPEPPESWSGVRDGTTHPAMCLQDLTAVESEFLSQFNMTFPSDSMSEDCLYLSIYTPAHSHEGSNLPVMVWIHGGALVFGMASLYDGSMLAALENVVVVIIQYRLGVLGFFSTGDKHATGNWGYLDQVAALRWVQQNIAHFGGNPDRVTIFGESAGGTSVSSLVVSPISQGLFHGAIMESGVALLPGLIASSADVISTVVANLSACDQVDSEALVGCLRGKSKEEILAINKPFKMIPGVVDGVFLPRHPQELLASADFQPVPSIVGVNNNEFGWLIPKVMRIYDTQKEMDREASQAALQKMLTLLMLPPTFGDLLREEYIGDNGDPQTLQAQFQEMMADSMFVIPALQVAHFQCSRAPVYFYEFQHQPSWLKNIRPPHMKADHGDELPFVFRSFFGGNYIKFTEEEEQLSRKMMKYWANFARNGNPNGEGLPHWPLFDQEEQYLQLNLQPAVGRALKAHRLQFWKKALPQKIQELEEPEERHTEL
The series can be described thus: Incubation with purified recombinant CE-2. Format: in vitro ADME. The following applies: 10 μM, within 60 minutes at room temperature.

For a further series, the target named is T2, recombinant CE-1 (Homo sapiens, UniProt P23141).
T2 sequence (P23141 18-567): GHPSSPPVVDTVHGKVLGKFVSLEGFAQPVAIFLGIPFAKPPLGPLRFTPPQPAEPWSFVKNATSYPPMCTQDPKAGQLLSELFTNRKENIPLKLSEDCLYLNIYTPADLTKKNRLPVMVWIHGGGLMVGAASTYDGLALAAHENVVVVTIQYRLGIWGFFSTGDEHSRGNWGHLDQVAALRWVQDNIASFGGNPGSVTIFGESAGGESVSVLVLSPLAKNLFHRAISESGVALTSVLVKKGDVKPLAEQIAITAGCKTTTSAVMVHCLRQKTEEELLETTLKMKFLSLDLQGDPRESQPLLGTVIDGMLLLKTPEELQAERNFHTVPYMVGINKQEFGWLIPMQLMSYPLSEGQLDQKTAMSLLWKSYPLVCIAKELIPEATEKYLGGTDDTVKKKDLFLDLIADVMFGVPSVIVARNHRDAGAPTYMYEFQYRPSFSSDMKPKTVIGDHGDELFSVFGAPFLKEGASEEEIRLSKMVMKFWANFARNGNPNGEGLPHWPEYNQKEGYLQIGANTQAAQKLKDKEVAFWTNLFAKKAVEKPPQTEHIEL
In words: Incubation with purified recombinant CE-1. The settings on record: 10 μM, within 60 minutes at room temperature. Format: in vitro ADME.

Series [1] is described as follows: Metabolic stability in human intestinal microsomes. The following applies: both, pooled human intestinal microsomes, pH 7.4.
The conditions of series [2]: microsomes.
The nature of series [3]: Metabolic stability in human liver microsomes. The following applies: both, pooled human liver microsomes, pH 7.4.

Take `COC(=O)NCCCC(C)(Cc1ccccc1)C(=O)Oc1ccc(Oc2ccc(CN(Cc3ccccc3)c3cccc(NS(C)(=O)=O)c3C)cc2)cc1` (stereo not drawn) [Compound 8f]: the “sensitivity to hydrolysis by recombinant CE-2” value on recombinant CE-2 is “moderate to extensive hydrolysis”. In addition, the “sensitivity to hydrolysis by recombinant CE-1” value on recombinant CE-1 is “completely resistant”. In series [1], this compound came in with a microsomal CLint at 1 μM of 43 µL/min/mg.

On to `C#CCC(CCCNC(=O)OC)C(=O)OCCOc1ccc(Oc2ccc(CN(Cc3ccccc3)c3cccc(NS(C)(=O)=O)c3C)cc2)cc1` (stereo not drawn) [Compound 9c], for which, on recombinant CE-2, the “sensitivity to hydrolysis by recombinant CE-2” value is recorded as “moderate to extensive hydrolysis”. In addition, the “sensitivity to hydrolysis by recombinant CE-1” value on recombinant CE-1 is given as “completely resistant”. In series [1], this compound returned a microsomal CLint at 1 μM of 1900 µL/min/mg.

For the compound “2-(4-(4((benzyl(2methyl3(methylsulfonamido)phenyl)amino)methyl)phenoxy)phenoxy)ethyl 2-isobutyl-5-((methoxycarbonyl)amino)pentanoate [Compound 8b]”, for the setting “microsomes”, the “CLint, in vitro HIM” value amounted to 220 µL/min/mg. Where the note is “pH 7.4”, the “half life (t1/2, min) HIM” value is reported as 6.3 min. Besides, in series [2] (human, pH 7.4), the “half life (t1/2, min) HLM” value was found to be 17 min. Moreover, the “CLint, in vitro HLM” value in series [2] amounted to 82 µL/min/mg.

`COC(=O)NCCCC(C)(C)C(=O)Oc1ccc(Oc2ccc(CN(Cc3ccccc3)c3cccc(NS(C)(=O)=O)c3C)cc2)cc1` [Compound 8e, 4-(4-((benzyl(2-methyl-3-(methylsulfonamido)phenyl)amino)methyl)phenoxy)phenyl 5-((methoxycarbonyl)amino)-2,2-dimethylpentanoate] had an intrinsic metabolic clearance (microsomal CLint) at 1 μM in series [1] of 1000 µL/min/mg.

Turning to `COC(=O)NCCCC(Cc1cn(Cc2ccccc2)nn1)C(=O)OCCOc1ccc(Oc2ccc(CN(Cc3ccccc3)c3cccc(NS(C)(=O)=O)c3C)cc2)cc1` (stereo not drawn) [Compound 9g], the “sensitivity to hydrolysis by recombinant CE-2” value on recombinant CE-2 was “moderate to extensive hydrolysis”. Moreover, on recombinant CE-1, the “sensitivity to hydrolysis by recombinant CE-1” value is given as “completely resistant”.

In turn, `C#CCC(CCCNC(=O)OC)C(=O)Oc1ccc(Oc2ccc(CN(Cc3ccccc3)c3cccc(NS(C)(=O)=O)c3C)cc2)cc1` (stereo not drawn) [Compound 8c] had a microsomal CLint at 1 μM in series [1] of 1700 µL/min/mg.

Consider `COC(=O)NCCCC(C)C(=O)Oc1ccc(Oc2ccc(CN(Cc3ccccc3)c3cccc(NS(C)(=O)=O)c3C)cc2)cc1` (stereo not drawn) [Compound 8a, 4-(4-((benzyl(2-methyl-3-(methylsulfonamido)phenyl)amino)methyl)phenoxy)phenyl 5-((methoxycarbonyl)amino)-2-methylpentanoate], for which the values for the microsomal CLint at 1 μM in series [3] and in series [1] were 1000 µL/min/mg and 2600 µL/min/mg, respectively.

In the case of `COC(=O)NCCCC(Cc1cn(Cc2ccccc2)nn1)C(=O)Oc1ccc(Oc2ccc(CN(Cc3ccccc3)c3cccc(NS(C)(=O)=O)c3C)cc2)cc1` (stereo not drawn) [Compound 8g, 4-(4-((benzyl(2-methyl-3-(methylsulfonamido)phenyl)amino)methyl)phenoxy)phenyl 2-((1-benzyl-1H-1,2,3-triazol-4-yl)methyl)-5-((methoxycarbonyl)amino)pentanoate], the “sensitivity to hydrolysis by recombinant CE-2” value on recombinant CE-2 is “moderate to extensive hydrolysis”. Moreover, the intrinsic clearance (microsomal CLint) at 1 μM in series [3] was found to be 140 µL/min/mg; in series [1], 480 µL/min/mg. Also, on recombinant CE-1, the “sensitivity to hydrolysis by recombinant CE-1” value is given as “completely resistant”.

In the case of `COC(=O)NCCCC(Cc1ccccc1)C(=O)Oc1ccc(Oc2ccc(CN(Cc3ccccc3)c3cccc(NS(C)(=O)=O)c3C)cc2)cc1` (stereo not drawn) [Compound 8d], the microsomal CLint at 1 μM in series [1] was 140 µL/min/mg.
